Measurements reported in publication PMC7265341, “Quantifying CDK inhibitor selectivity in live cells” (Nature Communications, 2020).

Experiments:
CDK6/Cyclin D1 = CDK6/Cyclin D1 (Homo sapiens, UniProt Q00534); assay: NanoBRET live-cell target engagement, NanoLuc-CDK6/Cyclin D1 in HEK-293; format: binding; settings: CDK6/D1, 10µM
CDK18/Cyclin Y = CDK18/Cyclin Y (Homo sapiens, UniProt Q07002); assay: NanoBRET live-cell target engagement, CDK18-NanoLuc/Cyclin Y in HEK-293; format: binding; settings: CDK18/Y, 10µM
CDK11B/Cyclin L2 = CDK11B/Cyclin L2 (Homo sapiens, UniProt P21127); assay: NanoBRET live-cell target engagement, CDK11B-NanoLuc/Cyclin L2 in HEK-293; format: binding; settings: CDK11b/L2, 10µM
CDK13/Cyclin K = CDK13/Cyclin K (Homo sapiens, UniProt Q14004); assay: NanoBRET live-cell target engagement, CDK13-NanoLuc/Cyclin K in HEK-293; format: binding; settings: CDK13/K, 10µM
CDK8/Cyclin C = CDK8/Cyclin C (Homo sapiens, UniProt P49336); assay: NanoBRET live-cell target engagement, NanoLuc-CDK8/Cyclin C in HEK-293; format: binding; settings: CDK8/C, 10µM
CDK12/Cyclin K = CDK12/Cyclin K (Homo sapiens, UniProt Q9NYV4); assay: NanoBRET live-cell target engagement, CDK12-NanoLuc/Cyclin K in HEK-293; format: binding; settings: CDK12/K, 10µM
CDK11A/Cyclin L2 = target: T1, CDK11A/Cyclin L2 (Homo sapiens, UniProt Q9UQ88); assay: NanoBRET live-cell target engagement, CDK11A-NanoLuc/Cyclin L2 in HEK-293; format: binding; settings: CDK11a/L2, 10µM
T1 sequence (Q9UQ88 1-783): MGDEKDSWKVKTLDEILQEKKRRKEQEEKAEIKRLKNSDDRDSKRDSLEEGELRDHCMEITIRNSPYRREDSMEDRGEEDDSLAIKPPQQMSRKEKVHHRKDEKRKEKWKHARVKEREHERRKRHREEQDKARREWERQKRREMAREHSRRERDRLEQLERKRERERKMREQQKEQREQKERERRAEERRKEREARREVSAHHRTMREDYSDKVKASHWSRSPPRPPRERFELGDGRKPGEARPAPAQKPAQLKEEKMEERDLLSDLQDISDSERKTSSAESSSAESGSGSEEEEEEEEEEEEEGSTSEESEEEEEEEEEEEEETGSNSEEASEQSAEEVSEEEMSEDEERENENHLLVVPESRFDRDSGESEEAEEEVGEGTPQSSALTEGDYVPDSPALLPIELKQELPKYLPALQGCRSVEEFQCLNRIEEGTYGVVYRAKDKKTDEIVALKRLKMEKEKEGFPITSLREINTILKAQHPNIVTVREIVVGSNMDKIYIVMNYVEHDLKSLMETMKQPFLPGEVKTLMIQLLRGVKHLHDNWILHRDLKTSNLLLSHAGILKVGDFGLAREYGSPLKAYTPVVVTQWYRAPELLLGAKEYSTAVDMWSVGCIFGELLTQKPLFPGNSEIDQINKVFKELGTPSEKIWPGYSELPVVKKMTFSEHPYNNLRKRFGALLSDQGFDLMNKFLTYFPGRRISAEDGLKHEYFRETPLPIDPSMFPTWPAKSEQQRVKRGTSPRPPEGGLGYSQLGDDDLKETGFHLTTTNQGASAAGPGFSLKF

CDK5/CDK5R1 = CDK5/CDK5R1 (Homo sapiens, UniProt Q00535); assay: NanoBRET live-cell target engagement, CDK5-NanoLuc/CDK5R1 in HEK-293; format: binding; settings: CDK5/CDK5R1, 10µM
CDK16/Cyclin Y = CDK16/Cyclin Y (Homo sapiens, UniProt Q00536); assay: NanoBRET live-cell target engagement, CDK16-NanoLuc/Cyclin Y in HEK-293; format: binding; settings: CDK16/Y; 10µM
CDK14/Cyclin Y = CDK14/Cyclin Y (Homo sapiens, UniProt O94921); assay: NanoBRET live-cell target engagement, CDK14-NanoLuc/Cyclin Y in HEK-293; format: binding; settings: CDK14/Y, 10µM
CDK9/Cyclin K = CDK9/Cyclin K (Homo sapiens, UniProt P50750); assay: NanoBRET live-cell target engagement, NanoLuc-CDK9/Cyclin K in HEK-293; format: binding; settings: CDK9/K, 10µM
CDK10/Cyclin L2 = CDK10/Cyclin L2 (Homo sapiens, UniProt Q15131); assay: NanoBRET live-cell target engagement, CDK10-NanoLuc/Cyclin L2 in HEK-293; settings: CDK10/L2, 10µM
CDK17/Cyclin Y = CDK17/Cyclin Y (Homo sapiens, UniProt Q00537); assay: NanoBRET live-cell target engagement, CDK17-NanoLuc/Cyclin Y in HEK-293; format: binding; settings: CDK17/Y, 10µM
CDK7 = CDK7 (Homo sapiens, UniProt P50613); assay: NanoBRET live-cell target engagement, NanoLuc-CDK7 in HEK-293; format: binding; settings: CDK7, 10µM
CDK15/Cyclin Y = CDK15/Cyclin Y (Homo sapiens, UniProt Q96Q40); assay: NanoBRET live-cell target engagement, NanoLuc-CDK15/Cyclin Y in HEK-293; format: binding; settings: CDK15/Y, 10µM
CDK4/Cyclin D1 = CDK4/Cyclin D1 (Homo sapiens, UniProt P11802); assay: NanoBRET live-cell target engagement, NanoLuc-CDK4/Cyclin D1 in HEK-293; format: binding; settings: CDK4/D1, 10µM
CDK1/Cyclin E1 = CDK1/Cyclin E1 (Homo sapiens, UniProt P06493); assay: NanoBRET live-cell target engagement, CDK1-NanoLuc/Cyclin E1 in HEK-293; format: binding; settings: CDK1/E1, 10µM
CDK20/Cyclin H = CDK20/Cyclin H (Homo sapiens, UniProt Q8IZL9); assay: NanoBRET live-cell target engagement, NanoLuc-CDK20/Cyclin H in HEK-293; format: binding; settings: CDK20/H; 10µM
CDK3/Cyclin E1 = CDK3/Cyclin E1 (Homo sapiens, UniProt Q00526); assay: NanoBRET live-cell target engagement, CDK3-NanoLuc/Cyclin E1 in HEK-293; format: binding; settings: CDK3/E1, 10µM
CDK2/Cyclin E1 = CDK2/Cyclin E1 (Homo sapiens, UniProt P24941); assay: NanoBRET live-cell target engagement, CDK2-NanoLuc/Cyclin E1 in HEK-293; format: binding; settings: CDK2/E1, 10µM
CDK19/Cyclin C = CDK19/Cyclin C (Homo sapiens, UniProt Q9BWU1); assay: NanoBRET live-cell target engagement, NanoLuc-CDK19/Cyclin C in HEK-293; settings: CDK19/C, 10µM
Chain of CDK19/Cyclin C (Q9BWU1 whole entry): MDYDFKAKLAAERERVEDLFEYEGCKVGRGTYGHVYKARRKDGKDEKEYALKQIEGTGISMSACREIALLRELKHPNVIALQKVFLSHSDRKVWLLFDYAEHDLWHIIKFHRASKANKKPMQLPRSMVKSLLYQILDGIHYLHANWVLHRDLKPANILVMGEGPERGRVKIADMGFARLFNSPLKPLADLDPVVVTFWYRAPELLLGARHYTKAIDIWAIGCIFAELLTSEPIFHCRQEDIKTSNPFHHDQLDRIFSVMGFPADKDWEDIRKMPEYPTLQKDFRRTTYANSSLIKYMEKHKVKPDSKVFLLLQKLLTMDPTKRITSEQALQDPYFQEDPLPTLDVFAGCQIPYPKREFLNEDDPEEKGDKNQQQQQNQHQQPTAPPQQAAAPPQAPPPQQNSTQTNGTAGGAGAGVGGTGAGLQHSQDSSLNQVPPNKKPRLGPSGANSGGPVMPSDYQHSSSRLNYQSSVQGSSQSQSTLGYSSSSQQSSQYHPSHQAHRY
Chain of CDK19/Cyclin C (P24863 whole entry partner): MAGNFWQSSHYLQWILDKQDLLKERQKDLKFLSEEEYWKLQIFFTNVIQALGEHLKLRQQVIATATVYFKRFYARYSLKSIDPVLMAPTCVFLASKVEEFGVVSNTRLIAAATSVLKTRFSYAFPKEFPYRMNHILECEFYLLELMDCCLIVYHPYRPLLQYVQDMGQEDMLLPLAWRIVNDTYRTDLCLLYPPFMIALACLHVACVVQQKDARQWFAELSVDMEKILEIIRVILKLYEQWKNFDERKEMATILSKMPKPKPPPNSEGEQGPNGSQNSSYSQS

Chain of CDK4/Cyclin D1 (P11802 whole entry): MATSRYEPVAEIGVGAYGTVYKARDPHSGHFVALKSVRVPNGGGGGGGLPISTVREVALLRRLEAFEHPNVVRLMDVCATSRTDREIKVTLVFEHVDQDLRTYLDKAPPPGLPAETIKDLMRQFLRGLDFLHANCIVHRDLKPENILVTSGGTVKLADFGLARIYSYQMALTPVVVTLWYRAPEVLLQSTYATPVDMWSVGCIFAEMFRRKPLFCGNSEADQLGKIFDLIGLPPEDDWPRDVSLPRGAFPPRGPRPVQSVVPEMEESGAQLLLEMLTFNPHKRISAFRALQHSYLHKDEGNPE
Chain of CDK4/Cyclin D1 (P24385 whole entry partner): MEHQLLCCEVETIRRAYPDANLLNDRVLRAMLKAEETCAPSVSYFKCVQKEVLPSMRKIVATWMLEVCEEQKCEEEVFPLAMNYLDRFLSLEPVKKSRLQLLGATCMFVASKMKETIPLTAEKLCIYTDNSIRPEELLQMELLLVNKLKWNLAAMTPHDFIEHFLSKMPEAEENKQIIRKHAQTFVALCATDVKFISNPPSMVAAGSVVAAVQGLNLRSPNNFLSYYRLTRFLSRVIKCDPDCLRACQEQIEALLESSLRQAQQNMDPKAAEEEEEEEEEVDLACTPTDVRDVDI
Chain of CDK8/Cyclin C (P49336 whole entry): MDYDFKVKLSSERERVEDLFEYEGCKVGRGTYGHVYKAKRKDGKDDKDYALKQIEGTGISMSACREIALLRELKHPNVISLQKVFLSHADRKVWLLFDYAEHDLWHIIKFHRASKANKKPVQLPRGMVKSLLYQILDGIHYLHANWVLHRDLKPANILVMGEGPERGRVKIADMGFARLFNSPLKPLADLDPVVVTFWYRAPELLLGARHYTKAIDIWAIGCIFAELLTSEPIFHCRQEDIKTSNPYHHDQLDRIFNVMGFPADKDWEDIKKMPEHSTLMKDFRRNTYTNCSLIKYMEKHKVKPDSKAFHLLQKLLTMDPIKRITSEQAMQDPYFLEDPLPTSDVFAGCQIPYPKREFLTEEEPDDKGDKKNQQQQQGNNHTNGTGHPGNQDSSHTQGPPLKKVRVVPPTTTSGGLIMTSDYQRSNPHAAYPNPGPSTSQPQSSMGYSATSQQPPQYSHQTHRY
Chain of CDK8/Cyclin C (P24863 whole entry partner): as the sequence (P24863 whole entry partner) above
Chain of CDK15/Cyclin Y (Q96Q40 whole entry): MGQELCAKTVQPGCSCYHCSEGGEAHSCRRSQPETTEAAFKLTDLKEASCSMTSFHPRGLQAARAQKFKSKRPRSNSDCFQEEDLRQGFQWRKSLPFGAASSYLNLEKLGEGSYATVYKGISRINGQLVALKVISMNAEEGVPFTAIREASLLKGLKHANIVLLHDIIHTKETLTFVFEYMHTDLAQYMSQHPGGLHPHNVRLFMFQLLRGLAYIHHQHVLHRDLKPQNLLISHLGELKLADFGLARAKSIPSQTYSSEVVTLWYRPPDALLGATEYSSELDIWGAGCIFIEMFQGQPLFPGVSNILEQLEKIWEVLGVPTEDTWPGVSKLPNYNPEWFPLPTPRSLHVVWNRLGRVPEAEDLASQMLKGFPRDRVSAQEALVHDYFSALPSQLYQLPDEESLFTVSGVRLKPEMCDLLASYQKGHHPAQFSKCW
Chain of CDK15/Cyclin Y (Q8ND76 whole entry partner): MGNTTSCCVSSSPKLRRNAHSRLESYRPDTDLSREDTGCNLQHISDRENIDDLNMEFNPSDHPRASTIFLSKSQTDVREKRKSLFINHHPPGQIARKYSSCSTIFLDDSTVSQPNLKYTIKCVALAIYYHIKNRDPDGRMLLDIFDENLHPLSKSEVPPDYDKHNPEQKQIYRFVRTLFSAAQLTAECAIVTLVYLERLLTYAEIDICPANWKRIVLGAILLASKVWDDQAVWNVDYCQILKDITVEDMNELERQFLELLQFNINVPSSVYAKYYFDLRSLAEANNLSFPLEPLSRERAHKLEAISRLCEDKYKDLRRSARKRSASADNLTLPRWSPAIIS
Chain of CDK18/Cyclin Y (Q07002 whole entry): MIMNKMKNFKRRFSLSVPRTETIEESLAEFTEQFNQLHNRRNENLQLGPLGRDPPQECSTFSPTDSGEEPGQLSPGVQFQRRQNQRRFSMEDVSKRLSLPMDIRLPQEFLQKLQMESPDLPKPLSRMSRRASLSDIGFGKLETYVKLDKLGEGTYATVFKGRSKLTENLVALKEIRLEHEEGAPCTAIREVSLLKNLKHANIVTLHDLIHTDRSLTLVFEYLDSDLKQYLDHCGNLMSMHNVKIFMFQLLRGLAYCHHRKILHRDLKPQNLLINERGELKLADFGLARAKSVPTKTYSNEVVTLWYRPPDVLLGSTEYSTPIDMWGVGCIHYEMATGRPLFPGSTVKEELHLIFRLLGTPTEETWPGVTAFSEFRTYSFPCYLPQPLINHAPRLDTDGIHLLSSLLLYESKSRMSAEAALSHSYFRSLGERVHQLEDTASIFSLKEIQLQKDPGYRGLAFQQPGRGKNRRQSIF
Chain of CDK18/Cyclin Y (Q8ND76 whole entry partner): as the sequence (Q8ND76 whole entry partner) above
Chain of CDK5/CDK5R1 (Q00535 whole entry): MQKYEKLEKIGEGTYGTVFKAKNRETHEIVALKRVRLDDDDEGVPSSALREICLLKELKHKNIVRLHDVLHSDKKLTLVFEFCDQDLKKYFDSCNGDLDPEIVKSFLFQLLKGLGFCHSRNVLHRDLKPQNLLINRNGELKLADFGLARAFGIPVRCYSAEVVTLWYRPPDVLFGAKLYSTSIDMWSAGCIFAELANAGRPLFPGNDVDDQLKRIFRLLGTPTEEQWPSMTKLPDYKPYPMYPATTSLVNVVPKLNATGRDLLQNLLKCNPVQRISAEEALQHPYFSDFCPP
Chain of CDK5/CDK5R1 (Q15078 whole entry partner): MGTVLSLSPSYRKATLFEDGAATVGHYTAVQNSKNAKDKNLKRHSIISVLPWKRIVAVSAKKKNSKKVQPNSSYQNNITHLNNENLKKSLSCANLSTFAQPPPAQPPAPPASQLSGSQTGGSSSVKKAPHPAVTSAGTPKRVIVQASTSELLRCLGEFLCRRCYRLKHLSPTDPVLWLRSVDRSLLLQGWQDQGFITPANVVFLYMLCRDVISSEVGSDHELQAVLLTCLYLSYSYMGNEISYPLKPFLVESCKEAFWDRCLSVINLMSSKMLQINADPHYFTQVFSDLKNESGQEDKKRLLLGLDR
Chain of CDK1/Cyclin E1 (P06493 whole entry): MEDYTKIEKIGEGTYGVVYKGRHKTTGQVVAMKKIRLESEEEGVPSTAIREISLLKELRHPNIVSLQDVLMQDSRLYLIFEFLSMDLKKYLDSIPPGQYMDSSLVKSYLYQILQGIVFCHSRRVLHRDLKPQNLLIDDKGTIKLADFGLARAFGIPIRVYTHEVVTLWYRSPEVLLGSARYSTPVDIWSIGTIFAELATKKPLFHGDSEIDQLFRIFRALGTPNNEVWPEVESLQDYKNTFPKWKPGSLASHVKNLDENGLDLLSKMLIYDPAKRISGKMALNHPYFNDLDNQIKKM
Chain of CDK1/Cyclin E1 (P24864 whole entry partner): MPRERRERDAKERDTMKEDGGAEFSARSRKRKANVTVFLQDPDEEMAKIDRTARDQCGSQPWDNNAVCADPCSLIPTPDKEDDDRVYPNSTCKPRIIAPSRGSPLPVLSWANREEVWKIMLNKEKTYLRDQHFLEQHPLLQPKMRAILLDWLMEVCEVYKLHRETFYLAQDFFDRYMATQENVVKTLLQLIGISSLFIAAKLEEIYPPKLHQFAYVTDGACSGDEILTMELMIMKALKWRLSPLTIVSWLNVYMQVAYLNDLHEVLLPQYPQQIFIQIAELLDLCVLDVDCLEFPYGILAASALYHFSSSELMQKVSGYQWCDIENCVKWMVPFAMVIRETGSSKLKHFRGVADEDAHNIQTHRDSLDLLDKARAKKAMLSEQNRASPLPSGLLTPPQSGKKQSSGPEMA
Chain of CDK10/Cyclin L2 (Q15131 whole entry): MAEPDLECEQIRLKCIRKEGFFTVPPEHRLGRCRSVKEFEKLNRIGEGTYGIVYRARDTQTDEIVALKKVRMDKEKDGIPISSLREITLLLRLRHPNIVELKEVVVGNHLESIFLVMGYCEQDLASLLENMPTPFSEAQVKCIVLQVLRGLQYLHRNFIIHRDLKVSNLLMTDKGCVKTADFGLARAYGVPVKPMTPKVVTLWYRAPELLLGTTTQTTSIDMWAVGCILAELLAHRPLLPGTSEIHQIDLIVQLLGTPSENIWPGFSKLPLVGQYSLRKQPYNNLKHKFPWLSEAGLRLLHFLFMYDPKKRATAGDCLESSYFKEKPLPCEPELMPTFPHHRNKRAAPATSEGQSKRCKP

Structure (SMILES): CCC(CO)Nc1nc(Nc2cccc(-c3ccccn3)c2)c2ncn(C(C)C)c2n1.Cl.O [(R) - DRF053]
- Inhibition at 10µM (%) Replicate 1 (CDK6/Cyclin D1): 6.0%
- Inhibition at 10µM (%) Replicate 2 (CDK6/Cyclin D1): 6.7%
- Inhibition at 10µM (%) Average (CDK6/Cyclin D1; average of replicates): 6.4%
- Inhibition at 10µM (%) Replicate 1 (CDK18/Cyclin Y): 37.9%
- Inhibition at 10µM (%) Replicate 2 (CDK18/Cyclin Y): 40.9%
- Inhibition at 10µM (%) Average (CDK18/Cyclin Y; average of replicates): 39.4%
- Inhibition at 10µM (%) Replicate 1 (CDK11B/Cyclin L2): 11.4%
- Inhibition at 10µM (%) Replicate 2 (CDK11B/Cyclin L2): 7.8%
- Inhibition at 10µM (%) Average (CDK11B/Cyclin L2; average of replicates): 9.6%
- Inhibition at 10µM (%) Replicate 1 (CDK13/Cyclin K): 7.7%
- Inhibition at 10µM (%) Replicate 2 (CDK13/Cyclin K): -21.5%
- Inhibition at 10µM (%) Average (CDK13/Cyclin K; average of replicates): -6.9%
- Inhibition at 10µM (%) Replicate 1 (CDK8/Cyclin C): 6.6%
- Inhibition at 10µM (%) Replicate 2 (CDK8/Cyclin C): -1.1%
- Inhibition at 10µM (%) Average (CDK8/Cyclin C; average of replicates): 2.7%
- Inhibition at 10µM (%) Replicate 1 (CDK12/Cyclin K): 4.1%
- Inhibition at 10µM (%) Replicate 2 (CDK12/Cyclin K): -13.6%
- Inhibition at 10µM (%) Average (CDK12/Cyclin K; average of replicates): -4.7%
- Inhibition at 10µM (%) Replicate 1 (CDK11A/Cyclin L2): 8.6%
- Inhibition at 10µM (%) Replicate 2 (CDK11A/Cyclin L2): 33.3%
- Inhibition at 10µM (%) Average (CDK11A/Cyclin L2; average of replicates): 21.0%
- Inhibition at 10µM (%) Replicate 1 (CDK5/CDK5R1): 69.5%
- Inhibition at 10µM (%) Replicate 2 (CDK5/CDK5R1): 71.6%
- Inhibition at 10µM (%) Average (CDK5/CDK5R1; average of replicates): 70.6%
- Inhibition at 10µM (%) Replicate 1 (CDK16/Cyclin Y): 15.7%
- Inhibition at 10µM (%) Replicate 2 (CDK16/Cyclin Y): 16.9%
- Inhibition at 10µM (%) Replicate 1 (CDK14/Cyclin Y): 8.2%
- Inhibition at 10µM (%) Replicate 2 (CDK14/Cyclin Y): 16.5%
- Inhibition at 10µM (%) Average (CDK14/Cyclin Y; average of replicates): 12.3%
- Inhibition at 10µM (%) Replicate 1 (CDK9/Cyclin K): 18.8%
- Inhibition at 10µM (%) Replicate 2 (CDK9/Cyclin K): 27.7%
- Inhibition at 10µM (%) Average (CDK9/Cyclin K; average of replicates): 23.2%
- Inhibition at 10µM (%) Replicate 1 (CDK10/Cyclin L2): 13.4%
- Inhibition at 10µM (%) Replicate 2 (CDK10/Cyclin L2): 27.0%
- Inhibition at 10µM (%) Average (CDK10/Cyclin L2; average of replicates): 20.2%
- Inhibition at 10µM (%) Replicate 1 (CDK17/Cyclin Y): 29.1%
- Inhibition at 10µM (%) Replicate 2 (CDK17/Cyclin Y): 25.1%
- Inhibition at 10µM (%) Average (CDK17/Cyclin Y; average of replicates): 27.1%
- Inhibition at 10µM (%) Replicate 1 (CDK7): 45.0%
- Inhibition at 10µM (%) Replicate 2 (CDK7): 59.3%
- Inhibition at 10µM (%) Average (CDK7; average of replicates): 52.2%
- Inhibition at 10µM (%) Replicate 1 (CDK15/Cyclin Y): 25.0%
- Inhibition at 10µM (%) Replicate 2 (CDK15/Cyclin Y): 29.8%
- Inhibition at 10µM (%) Average (CDK15/Cyclin Y; average of replicates): 27.4%
- Inhibition at 10µM (%) Replicate 1 (CDK4/Cyclin D1): 19.9%
- Inhibition at 10µM (%) Replicate 2 (CDK4/Cyclin D1): 22.3%
- Inhibition at 10µM (%) Average (CDK4/Cyclin D1; average of replicates): 21.1%
- Inhibition at 10µM (%) Replicate 1 (CDK1/Cyclin E1): 46.5%
- Inhibition at 10µM (%) Replicate 2 (CDK1/Cyclin E1): 41.5%
- Inhibition at 10µM (%) Average (CDK1/Cyclin E1; average of replicates): 44.0%
- Inhibition at 10µM (%) Replicate 1 (CDK20/Cyclin H): 16.2%
- Inhibition at 10µM (%) Replicate 2 (CDK20/Cyclin H): 18.8%
- Inhibition at 10µM (%) Replicate 1 (CDK3/Cyclin E1): 72.1%
- Inhibition at 10µM (%) Replicate 2 (CDK3/Cyclin E1): 71.8%
- Inhibition at 10µM (%) Average (CDK3/Cyclin E1; average of replicates): 72.0%
- Inhibition at 10µM (%) Replicate 1 (CDK2/Cyclin E1): 75.6%
- Inhibition at 10µM (%) Replicate 2 (CDK2/Cyclin E1): 76.1%
- Inhibition at 10µM (%) Average (CDK2/Cyclin E1; average of replicates): 75.9%
- Inhibition at 10µM (%) Replicate 1 (CDK19/Cyclin C): 16.0%
- Inhibition at 10µM (%) Replicate 2 (CDK19/Cyclin C): -0.8%
- Inhibition at 10µM (%) Average (CDK19/Cyclin C; average of replicates): 7.6%
